# According to ChEMBL document CHEMBL1201862, “PubChem BioAssay data set” (2004):
# Active and inactive are the calls of the source.
# Columns and labels:
# HEK293 [1] = experiment: Fluorescence-based counterscreen for potentiators or agonists of NPY-Y1: cell-based high-throughput dose response assay for inhibitors of cyclic nucleotide gated ion channel (CNGC) activity. In this assay, the parental HEK293 cell line transfected with a cyclic-nucleotide gated ion channel (CNGC)-based cAMP sensor is used to measure inhibition of isoproterenol-induced CNGC …; format: functional; details: Homo sapiens
# [2] = target: T1, Neuropeptide Y receptor type 2 (Homo sapiens, UniProt P49146); experiment: Fluorescence-based counterscreen for agonists of NPY-Y1: cell-based high-throughput dose response assay for agonists of NPY-Y2.; format: functional
# T1 sequence (P49146 whole entry): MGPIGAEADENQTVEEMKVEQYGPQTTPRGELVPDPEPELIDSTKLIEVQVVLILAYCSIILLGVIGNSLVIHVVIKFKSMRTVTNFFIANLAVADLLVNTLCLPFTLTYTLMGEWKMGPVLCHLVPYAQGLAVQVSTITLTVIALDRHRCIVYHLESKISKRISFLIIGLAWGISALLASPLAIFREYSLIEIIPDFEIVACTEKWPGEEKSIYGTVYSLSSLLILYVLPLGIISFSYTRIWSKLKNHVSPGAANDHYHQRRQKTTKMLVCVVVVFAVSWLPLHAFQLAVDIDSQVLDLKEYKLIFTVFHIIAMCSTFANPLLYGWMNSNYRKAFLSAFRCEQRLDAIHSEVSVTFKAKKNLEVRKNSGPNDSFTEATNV
# Estrogen receptor = target: T2, Estrogen receptor (Homo sapiens, UniProt P03372);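 note: potency for inhibiting coactivator peptide recruitment to the receptor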
# T2 sequence (P03372 whole entry): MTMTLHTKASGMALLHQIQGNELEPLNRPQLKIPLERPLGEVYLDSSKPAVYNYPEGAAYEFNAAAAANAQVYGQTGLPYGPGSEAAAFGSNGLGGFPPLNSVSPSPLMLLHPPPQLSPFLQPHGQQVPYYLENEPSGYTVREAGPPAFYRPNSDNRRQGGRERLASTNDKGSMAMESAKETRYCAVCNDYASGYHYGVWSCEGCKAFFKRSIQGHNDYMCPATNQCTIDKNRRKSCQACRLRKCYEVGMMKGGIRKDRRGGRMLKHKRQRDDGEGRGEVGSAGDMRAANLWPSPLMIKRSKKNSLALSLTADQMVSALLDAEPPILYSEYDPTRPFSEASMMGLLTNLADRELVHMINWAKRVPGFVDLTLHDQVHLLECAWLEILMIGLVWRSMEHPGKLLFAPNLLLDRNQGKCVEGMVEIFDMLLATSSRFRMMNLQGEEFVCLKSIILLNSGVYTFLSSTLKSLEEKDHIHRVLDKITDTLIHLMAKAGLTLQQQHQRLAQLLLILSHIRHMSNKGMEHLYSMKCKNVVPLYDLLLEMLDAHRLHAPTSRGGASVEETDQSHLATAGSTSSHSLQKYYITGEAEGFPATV
# [3] = target: T3, Neuropeptide Y receptor type 1 (Homo sapiens, UniProt P25929); experiment: Fluorescence-based dose response cell-based high-throughput screening assay for agonists of NPY-Y1. [Related pubchem assays: 1697 (Screening assay (NPY-Y1 agonists).), 1359 (Screening assay (NPY-Y2 potentiators or agonists).), 1304 (Screening assay (NPY-Y1 potentiators or agonists).), 1704 (Screening assay (CNGC inhibitors).), 1791 (Summary AID.)]; format: functional
# T3 sequence (P25929 whole entry): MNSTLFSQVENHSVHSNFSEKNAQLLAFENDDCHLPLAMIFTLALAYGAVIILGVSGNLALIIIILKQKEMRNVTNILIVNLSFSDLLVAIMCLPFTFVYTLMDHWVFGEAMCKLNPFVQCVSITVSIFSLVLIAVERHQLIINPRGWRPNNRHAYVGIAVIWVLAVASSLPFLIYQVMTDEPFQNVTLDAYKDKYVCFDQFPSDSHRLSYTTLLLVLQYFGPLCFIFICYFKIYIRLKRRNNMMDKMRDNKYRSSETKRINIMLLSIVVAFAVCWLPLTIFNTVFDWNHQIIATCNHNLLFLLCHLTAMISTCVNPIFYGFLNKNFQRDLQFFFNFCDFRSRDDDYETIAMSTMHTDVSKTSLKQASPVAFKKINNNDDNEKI
# [4] = M. tuberculosis growth inhibition, HTS (AID 449762); format: functional
# Cytochrome P450 3A4 = Cytochrome P450 3A4 (Homo sapiens, UniProt P08684); details: Potency;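 note: confirmatory qHTS run detecting inhibitors and substrates of CYP3A4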
# Cytochrome P450 3A4, sequence (P08684 whole entry): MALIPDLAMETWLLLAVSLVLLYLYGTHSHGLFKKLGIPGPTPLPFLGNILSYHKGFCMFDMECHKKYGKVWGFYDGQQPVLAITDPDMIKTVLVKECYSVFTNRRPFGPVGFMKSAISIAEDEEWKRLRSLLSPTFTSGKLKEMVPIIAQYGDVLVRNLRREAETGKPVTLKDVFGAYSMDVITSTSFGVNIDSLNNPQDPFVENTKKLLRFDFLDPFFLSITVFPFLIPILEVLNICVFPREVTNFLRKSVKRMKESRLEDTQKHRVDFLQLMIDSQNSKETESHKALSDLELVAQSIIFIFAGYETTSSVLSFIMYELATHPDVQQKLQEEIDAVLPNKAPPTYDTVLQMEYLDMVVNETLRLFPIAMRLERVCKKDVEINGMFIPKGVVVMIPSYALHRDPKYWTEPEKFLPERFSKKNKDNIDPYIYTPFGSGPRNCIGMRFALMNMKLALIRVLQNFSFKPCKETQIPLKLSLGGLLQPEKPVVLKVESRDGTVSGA
# Cytochrome P450 2D6 = Cytochrome P450 2D6 (Homo sapiens, UniProt P10635); experiment: qHTS Assay for Inhibitors and Substrates of Cytochrome P450 2D6. [Related pubchem assays: 410 ]; format: ADME; details: read-out: Potency
# Cytochrome P450 2D6, sequence (P10635 whole entry): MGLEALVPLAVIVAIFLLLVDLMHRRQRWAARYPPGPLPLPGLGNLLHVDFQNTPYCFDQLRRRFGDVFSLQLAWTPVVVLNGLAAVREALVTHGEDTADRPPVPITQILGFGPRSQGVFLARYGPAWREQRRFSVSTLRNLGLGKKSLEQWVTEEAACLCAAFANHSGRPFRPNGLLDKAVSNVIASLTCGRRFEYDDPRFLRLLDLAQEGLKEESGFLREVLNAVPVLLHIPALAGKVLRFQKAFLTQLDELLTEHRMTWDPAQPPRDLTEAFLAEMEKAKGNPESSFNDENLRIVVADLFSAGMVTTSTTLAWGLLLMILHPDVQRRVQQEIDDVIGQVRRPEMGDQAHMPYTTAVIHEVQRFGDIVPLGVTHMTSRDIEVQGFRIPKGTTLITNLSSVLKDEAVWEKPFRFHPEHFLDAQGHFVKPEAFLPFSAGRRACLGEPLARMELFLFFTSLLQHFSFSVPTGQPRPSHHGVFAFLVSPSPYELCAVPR
# Streptokinase A = target: T4, Streptokinase A (Streptococcus pyogenes serotype M1, UniProt P10520); experiment: S. pyogenes streptokinase expression inhibitors, potency, dose response, plasminogen activation absorbance, OD405 (AID 1914); format: functional, Streptococcus pyogenes M1 GAS;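 note: secreted streptokinase activity via plasminogen activation per viability signal from cell pellet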
# T4 sequence (P10520 whole entry): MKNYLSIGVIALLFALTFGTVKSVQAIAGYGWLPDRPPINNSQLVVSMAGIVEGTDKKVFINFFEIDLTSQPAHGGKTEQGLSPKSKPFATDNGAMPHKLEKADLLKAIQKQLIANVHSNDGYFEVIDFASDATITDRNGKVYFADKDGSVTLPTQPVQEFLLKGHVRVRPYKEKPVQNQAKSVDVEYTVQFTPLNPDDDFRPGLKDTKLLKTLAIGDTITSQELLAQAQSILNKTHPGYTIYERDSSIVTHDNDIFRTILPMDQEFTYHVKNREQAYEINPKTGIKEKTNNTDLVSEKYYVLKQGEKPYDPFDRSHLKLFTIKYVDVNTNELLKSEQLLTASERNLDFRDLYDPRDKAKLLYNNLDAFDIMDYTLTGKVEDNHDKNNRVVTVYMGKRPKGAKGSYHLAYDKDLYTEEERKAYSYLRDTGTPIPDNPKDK
# Streptococcus [5] = experiment: Group A Streptococcus viability loss, dose response, counter-screen for streptokinase expression inhibitor project, luminescence, BacTiterGlo (AID 1915); format: functional, organism-based;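 note: potency for reduction of bacterial viability or growth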
# [6] = tested on: Streptococcus sp. 'group A'; experiment: growth inhibition of control SK(-) GAS strain, dose response, counter-screen for streptokinase expression inhibitor project, luminescence, kanamycin, BacTiterGlo, confirmation (AID 1900); format: functional, organism-based
# Streptococcus [7] = experiment: Luminescence Microorganism-Based Dose Response Follow up to Identify Compounds Cytotoxic to Streptococcus. [Related pubchem assays: 1677 (Project Summary), 1915, 1914, 1902 (Retest at Dose), 1900 (Counter Screen), 1662 (Primary HTS)]; format: functional, organism-based
# BJ [8] = experiment: cells; format: functional, cell-based; details: Homo sapiens
# [9] = inhibitors of SNCA 5'UTR-driven reporter translation, confirmation, H4 neuroglioma cells, luminescence (AID 1988); format: functional, cell-based
# BJ [10] = experiment: cytotoxicity toward BJ-TERT fibroblasts, dose response, cell-based, RAS-independent, luminescence (AID 1933); format: functional; details: Homo sapiens
# [11] = Luminescence Cell-Based Dose Response HTS to Identify Inhibitors of 5'UTR Stem-Loop Driven Prion Protein mRNA Translation in H4 Neuroglioblastoma Cells. [Related pubchem assays: 1827 (Project Summary), 1813 (Primary HTS)]; format: functional
# [12] = Luminescence-based dose response cell-based high throughput screening assay for cytotoxic compounds using the IEC-6 intestinal epithelial cell line. [Related pubchem assays: 1858 (Summary AID.), 1825 (Counterscreen.), 1907 (Confirmation screen.)]; format: functional
# HEK293 [13] = experiment: inhibitors of LMP1-driven NF-kB reporter, dose response, cell-based, HEK293, luciferase, cherry-pick (AID 588343); format: functional; details: Homo sapiens
# BJ [14] = experiment: cytotoxicity toward Ras-transformed BJeLR fibroblasts, dose response, cell-based, alamar blue fluorescence, cherrypicked samples (AID 2631); format: functional; details: Homo sapiens;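 note: confirmatory dose-response assay in RAS-dependent BJ fibroblasts engineered with TERT, LT and ST, with cytotoxicity read by fluorescence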
# cells = format: functional, cell-based
# [15] = inhibitors of SNCA 5'UTR-driven translation, confirmation, luminescence, H4 neuroglioblastoma cells, dose confirmation (AID 2454); format: functional, cell-based;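 note: H4 neuroglioblastoma cells carrying an alpha-synuclein 5'UTR luciferase reporter; potency for inhibition of the luciferase signal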
# BJ [16] = experiment: cytotoxicity toward BJ-TERT-LT-ST fibroblasts, dose response, cell-based, RAS-independent, luminescence (AID 1935); format: functional; details: Homo sapiens;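 note: BJ fibroblasts immortalized with TERT plus LT and ST oncogenes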
# [17] = luciferase reporter signal reduction – luminescence, H4-C neuroglioblastoma cells, dose response (AID 2458); format: functional, cell-based;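 note: H4 neuroglioblastoma cells stably carrying a luciferase reporter gene fusion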
# Aminopeptidase N = target: T5, Aminopeptidase N (Plasmodium falciparum FcB1/Columbia, UniProt O96935); experiment: P. falciparum M1AAP inhibitors, biochemical, fluorogenic H-Leu-NHMec substrate, 1536-well (AID 1445); parameters: species or system Plasmodium falciparum 3D7, 3D7
# T5 sequence (O96935 whole entry): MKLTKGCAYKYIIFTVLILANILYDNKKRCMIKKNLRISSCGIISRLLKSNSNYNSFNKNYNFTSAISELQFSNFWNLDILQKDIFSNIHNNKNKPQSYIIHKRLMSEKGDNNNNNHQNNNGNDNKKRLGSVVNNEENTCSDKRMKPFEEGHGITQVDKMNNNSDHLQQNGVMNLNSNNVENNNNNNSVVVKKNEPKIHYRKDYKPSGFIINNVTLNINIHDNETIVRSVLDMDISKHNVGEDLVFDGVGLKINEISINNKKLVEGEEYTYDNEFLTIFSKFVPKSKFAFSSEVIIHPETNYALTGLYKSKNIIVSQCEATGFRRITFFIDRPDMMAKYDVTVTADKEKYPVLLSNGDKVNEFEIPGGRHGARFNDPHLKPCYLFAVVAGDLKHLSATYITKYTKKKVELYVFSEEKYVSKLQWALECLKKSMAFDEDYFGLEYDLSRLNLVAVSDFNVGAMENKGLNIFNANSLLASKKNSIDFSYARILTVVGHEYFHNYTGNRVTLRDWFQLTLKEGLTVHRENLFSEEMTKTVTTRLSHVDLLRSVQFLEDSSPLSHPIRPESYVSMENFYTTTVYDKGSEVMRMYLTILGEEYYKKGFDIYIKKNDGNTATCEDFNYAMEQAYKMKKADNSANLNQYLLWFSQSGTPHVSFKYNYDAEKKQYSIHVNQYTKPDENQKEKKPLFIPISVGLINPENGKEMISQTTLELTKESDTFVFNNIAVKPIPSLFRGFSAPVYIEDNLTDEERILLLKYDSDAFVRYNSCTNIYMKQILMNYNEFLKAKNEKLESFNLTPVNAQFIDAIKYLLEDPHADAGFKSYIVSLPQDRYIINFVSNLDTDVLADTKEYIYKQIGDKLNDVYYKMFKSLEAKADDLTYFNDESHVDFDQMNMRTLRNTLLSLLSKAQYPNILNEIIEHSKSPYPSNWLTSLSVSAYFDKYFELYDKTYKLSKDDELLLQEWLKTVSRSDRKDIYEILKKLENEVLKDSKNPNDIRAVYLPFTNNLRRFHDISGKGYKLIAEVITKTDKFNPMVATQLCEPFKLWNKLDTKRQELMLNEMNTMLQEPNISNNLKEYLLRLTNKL
# [18] = inhibitors of firefly luciferase expression or activity, dose response, H4 neuroglioma cells, luminescence (AID 1990); format: functional, cell-based
# [19] = target: T6, Alkaline phosphatase, tissue-nonspecific isozyme (Homo sapiens, UniProt P05186)
# T6 sequence (P05186 whole entry): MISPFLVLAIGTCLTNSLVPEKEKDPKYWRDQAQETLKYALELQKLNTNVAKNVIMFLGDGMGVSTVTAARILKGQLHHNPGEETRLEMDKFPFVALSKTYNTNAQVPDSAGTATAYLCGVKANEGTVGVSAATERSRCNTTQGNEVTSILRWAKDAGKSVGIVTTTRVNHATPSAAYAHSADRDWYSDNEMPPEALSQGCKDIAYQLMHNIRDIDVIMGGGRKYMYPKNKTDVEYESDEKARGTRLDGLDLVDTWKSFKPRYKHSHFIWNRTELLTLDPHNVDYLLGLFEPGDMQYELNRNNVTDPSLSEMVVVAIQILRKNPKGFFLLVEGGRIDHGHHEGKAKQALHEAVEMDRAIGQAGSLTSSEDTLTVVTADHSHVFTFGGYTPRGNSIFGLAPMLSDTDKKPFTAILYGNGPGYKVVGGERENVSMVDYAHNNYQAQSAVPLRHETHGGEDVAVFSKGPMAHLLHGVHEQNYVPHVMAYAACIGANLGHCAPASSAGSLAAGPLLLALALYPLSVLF
# Wee1-like protein kinase = Wee1-like protein kinase (Homo sapiens, UniProt P30291); experiment: Dose Response Cell-based Assay for Inhibitors of Wee1 Degradation. [Related pubchem assays: 1410, 1321 ]; format: functional
# Wee1-like protein kinase, sequence (P30291 whole entry): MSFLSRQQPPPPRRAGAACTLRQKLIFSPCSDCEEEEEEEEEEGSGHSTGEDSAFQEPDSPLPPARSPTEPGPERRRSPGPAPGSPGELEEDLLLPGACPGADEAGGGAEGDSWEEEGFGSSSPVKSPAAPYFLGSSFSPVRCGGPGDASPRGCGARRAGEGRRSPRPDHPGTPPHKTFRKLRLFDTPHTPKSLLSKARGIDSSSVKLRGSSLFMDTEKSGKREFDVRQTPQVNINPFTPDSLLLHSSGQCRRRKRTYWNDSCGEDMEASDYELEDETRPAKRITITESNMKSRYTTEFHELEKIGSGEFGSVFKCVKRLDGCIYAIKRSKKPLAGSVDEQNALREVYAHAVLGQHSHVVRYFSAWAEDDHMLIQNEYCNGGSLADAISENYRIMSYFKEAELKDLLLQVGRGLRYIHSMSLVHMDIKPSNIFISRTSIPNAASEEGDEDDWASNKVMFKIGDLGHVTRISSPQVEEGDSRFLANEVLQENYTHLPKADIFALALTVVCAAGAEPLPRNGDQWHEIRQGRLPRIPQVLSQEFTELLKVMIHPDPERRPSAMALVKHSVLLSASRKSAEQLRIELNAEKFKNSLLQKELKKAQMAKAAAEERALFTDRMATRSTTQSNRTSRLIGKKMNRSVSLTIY
# [20] = target: G2/mitotic-specific cyclin-B1 (Homo sapiens, UniProt P14635); experiment: Counterscreen assay for inhibitors of Wee1 degradation: dose response cell-based assay to identify inhibitors of cyclin B degradation. [Related pubchem assays: 1410, 1321 ]; format: functional
# G2/mitotic-specific cyclin-B1, sequence (P14635 whole entry): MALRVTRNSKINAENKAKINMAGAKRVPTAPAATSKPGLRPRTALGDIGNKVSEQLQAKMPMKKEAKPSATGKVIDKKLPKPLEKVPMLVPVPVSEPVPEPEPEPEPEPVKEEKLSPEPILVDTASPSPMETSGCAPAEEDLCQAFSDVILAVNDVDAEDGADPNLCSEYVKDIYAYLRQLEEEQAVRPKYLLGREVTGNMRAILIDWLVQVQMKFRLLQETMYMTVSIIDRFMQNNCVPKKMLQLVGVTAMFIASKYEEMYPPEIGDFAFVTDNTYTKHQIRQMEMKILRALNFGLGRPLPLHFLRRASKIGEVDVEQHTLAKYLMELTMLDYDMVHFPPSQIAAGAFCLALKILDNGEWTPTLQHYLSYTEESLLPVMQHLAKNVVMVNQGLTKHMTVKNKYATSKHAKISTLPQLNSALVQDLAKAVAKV
# [21] = target: Lysosomal acid glucosylceramidase (Homo sapiens, UniProt P04062); experiment: Dose response cell-based high throughput screening assay to identify enhancers of beta-glucosidase activity. [Related pubchem assays: 784 ]; format: functional
# Lysosomal acid glucosylceramidase, sequence (P04062 whole entry): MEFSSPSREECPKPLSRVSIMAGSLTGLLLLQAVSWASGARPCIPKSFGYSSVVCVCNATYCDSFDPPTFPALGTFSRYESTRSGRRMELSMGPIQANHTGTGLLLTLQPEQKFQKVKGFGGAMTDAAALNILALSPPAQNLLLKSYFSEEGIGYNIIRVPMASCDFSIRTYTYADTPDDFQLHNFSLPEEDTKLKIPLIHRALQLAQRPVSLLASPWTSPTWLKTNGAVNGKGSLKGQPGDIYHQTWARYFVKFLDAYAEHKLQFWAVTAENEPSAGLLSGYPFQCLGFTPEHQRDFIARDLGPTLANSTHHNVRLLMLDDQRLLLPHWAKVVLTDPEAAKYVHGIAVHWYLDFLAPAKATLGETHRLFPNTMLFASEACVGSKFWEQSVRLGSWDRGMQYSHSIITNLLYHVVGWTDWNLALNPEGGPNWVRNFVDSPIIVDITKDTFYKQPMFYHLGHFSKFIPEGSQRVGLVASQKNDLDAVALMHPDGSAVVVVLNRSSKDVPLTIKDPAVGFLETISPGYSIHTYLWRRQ
smiles,measurement,setting,value
CCn1c(SCC(=O)Nc2ccc3c(c2)oc2ccccc23)nnc1-c1ccc(N)cc1,IC50,HEK293 [1],2.88 µM (active)
same,EC50,[2],7.96 µM (active)
same,IC50,Estrogen receptor,11.7 µM (active)
same,EC50,[3],7.16 µM (active)
same,IC50,[4],> 100 µM (active)
COc1cccc2[nH]c(-c3ccccn3)nc12,AC50,Cytochrome P450 3A4,3.98 µM (inconclusive)
same,AC50,Cytochrome P450 2D6,1.58 µM (inconclusive)
CCOc1ccc(Cl)cc1S(=O)(=O)n1cnc2cc(C)c(C)cc21,EC50,Streptokinase A,7.31 µM (active)
same,EC50,Streptococcus [5],> 150 µM (not active)
same,EC50,[6],23.8 µM (active)
same,EC50,Streptococcus [7],> 500 µM (not active)
Cc1nc(N)nc(N)c1/C=C/C(C)(C)c1ccc(Cl)cc1,EC50,BJ [8],< 120 nM (active)
same,EC50,[9],< 100 nM (active)
same,EC50,BJ [10],15.9 µM (active)
same,EC50,[11],< 100 nM (active)
same,IC50,[12],> 2.02 nM (active)
same,AC50,HEK293 [13],45.8 nM (active)
same,EC50,BJ [14],> 133 µM (inactive)
same,EC50,cells,12 nM (active)
same,EC50,[15],< 1 nM (active)
same,EC50,BJ [16],> 150 µM (inconclusive)
same,EC50,[17],9 nM (active)
same,IC50,Aminopeptidase N,66.2 µM (active)
same,EC50,[18],< 100 nM (active)
CCCCNC(=O)CSc1nc2cc3c(cc2c(=O)n1CCC(=O)NCCc1ccc(OC)c(OC)c1)OCO3,EC50,[19],> 100 µM (not active)
COc1ccc(Nc2oc(-c3ccc(OC)cc3)nc2C#N)cc1,EC50,Wee1-like protein kinase,> 49.7 µM (not active)
same,EC50,[20],> 49.7 µM (not active)
O=S(=O)(NCc1csc(-c2cccnc2)n1)c1ccc2c(c1)OCCO2,EC50,[21],> 50 µM (not active)
